Assay results taken from patent EP4813463A2, “TYK2 INHIBITORS AND COMPOSITIONS AND METHODS THEREOF” (Lynk Pharmaceuticals Co. Ltd., priority 2023, dated 2024).
Like-named read-outs stand apart in the source and are kept apart here.

Tests used:
TYK2-JH2 domain = target: T1, TYK2-JH2 domain (Homo sapiens, UniProt P29597); assay: Binding activity test for JH2 domain of TYK2 (Tb-antibody/tracer FRET)
T1 construct: JAK1-JH2 domain or TYK2-JH2 domain enzyme in assay buffer
Method in brief: (§1)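 IC50 values (nM) come from TR-FRET readings taken after a 25°C incubation followed by overnight at 4°C. Each well held JH2 domain protein, Tb-antibody, tracer and test compound titrated in 11 threefold steps, with DMSO high and low controls.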

JAK1-JH2 domain = target: T2, JAK1-JH2 domain (Homo sapiens, UniProt P23458); assay: Binding activity test for JH2 domain of JAK1 (Tb-antibody/tracer FRET)
T2 construct: JAK1-JH2 domain or TYK2-JH2 domain enzyme in assay buffer
T2 sequence (P23458 583-855 limits assumed): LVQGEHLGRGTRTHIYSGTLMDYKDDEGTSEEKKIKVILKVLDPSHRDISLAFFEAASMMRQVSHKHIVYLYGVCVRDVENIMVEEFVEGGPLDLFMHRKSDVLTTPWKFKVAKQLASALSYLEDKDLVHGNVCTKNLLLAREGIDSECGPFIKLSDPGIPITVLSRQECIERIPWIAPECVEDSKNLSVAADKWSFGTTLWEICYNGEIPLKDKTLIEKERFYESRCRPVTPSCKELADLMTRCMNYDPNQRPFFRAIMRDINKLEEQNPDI
Method in brief: as §1

[1] = test system: Ba/F3-FL-TYK2-P760L cells; assay: Anti-proliferative assay in engineered Ba/F3 cells (Cell-Titer Glo, 72 h); assay type: cell-based; conditions: Mus musculus, concentration that causes 50% growth inhibition, read-out: Baf3-FL-T2P760L
Method in brief: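 IC50 from luminescent ATP viability after 72 h compound exposure (37 °C, 5% CO2), % inhibition normalised to DMSO-treated cells minus medium blank. IL-3-free Ba/F3-FL-TYK2-P760L (Tel-JAK fusion) cells in 10% FBS RPMI-1640 received 9 three-fold doses, top 20 µM, 0.1% DMSO.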

[2] = JH2 domain enzyme; 60 min at 25°C, then 4°C overnight; read-out: TYK2 JH2 Binding IC50
[3] = ratio of JAK1 JH2 to TYK2 JH2 binding IC50
[4] = JH2 domain enzyme; 60 min at 25°C, then 4°C overnight; read-out: JAK1 JH2 Binding IC50
[5] = BaF3, 72 h, 72 h compound treatment

T1 sequence (P29597 589-875 limits assumed): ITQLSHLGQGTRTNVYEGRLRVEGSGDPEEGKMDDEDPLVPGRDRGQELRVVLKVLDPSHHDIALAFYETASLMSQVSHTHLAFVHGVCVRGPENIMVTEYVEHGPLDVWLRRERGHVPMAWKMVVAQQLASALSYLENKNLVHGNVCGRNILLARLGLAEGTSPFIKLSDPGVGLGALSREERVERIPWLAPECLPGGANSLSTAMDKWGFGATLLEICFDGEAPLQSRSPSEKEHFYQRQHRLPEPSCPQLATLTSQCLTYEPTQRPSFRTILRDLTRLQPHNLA

SMILES	IC50 (TYK2-JH2 domain; [2]) [nM]	JAK1/TYK2 selectivity (TYK2-JH2 domain; [3])	IC50 (JAK1-JH2 domain; [4]) [nM]	IC50 [1, 5] [nM]	IC50 ([1]; BaF3, 72 h compound treatment) [nM]	IC50 (TYK2-JH2 domain; read-out: TYK2 JH2 Binding IC50; JH2 domain enzyme; 60 min at 25°C, then 4°C overnight) [nM]	IC50 (JAK1-JH2 domain; read-out: JAK1 JH2 Binding IC50; JH2 domain enzyme; 60 min at 25°C, then 4°C overnight) [nM]
[2H]C([2H])([2H])OC(=O)c1cnc(NC(=O)C2CC2)cc1Nc1cnn2ccc([C@H](OC([2H])([2H])[2H])C(F)(F)F)c(OC)c12 [Example 80, Methyl-d3 (S)-6-(cyclopropanecarboxamido)-4-((4-methoxy-5-(2,2,2-trifluoro-1-(methoxy-d3)ethyl)pyrazolo[1,5-a]pyridin-3-yl)amino)nicotinate]	0.26	176.08	46	88.9	–	–	–
[2H]C([2H])([2H])OC(=O)c1cnc(NC(=O)C2CC2)cc1Nc1ncn2ncc(C(OC)C(F)(F)F)c2c1OC (centres unmarked) [Example 81, Methyl-d3 6-(cyclopropanecarboxamido)-4-((4-methoxy-3-(2,2,2-trifluoro-1-methoxyethyl)pyrazolo[1,5-c]pyrimidin-5-yl)amino)nicotinate]	4.02	>74.25	> 298	306	–	–	–
CCOC(=O)c1cnc(NC(=O)C2CC2)cc1Nc1cnn2ccc([C@H](O)C(F)(F)F)c(OC)c12 [Example 83, (S)-ethyl 6-(cyclopropanecarboxamido)-4-((4-methoxy-5-(2,2,2-trifluoro-1-hydroxyethyl)pyrazolo[1,5-a]pyridin-3-yl)amino)nicotinate]	0.76	>393.28	> 298	173	–	–	–
[2H]C([2H])([2H])NC(=O)c1cnc(NC(=O)C2CC2)cc1Nc1cnn2ccc(C(O)(C(F)(F)F)C(F)(F)F)c(OC)c12 [Example 84, 6-(Cyclopropanecarboxamido)-4-((5-(1,1,1,3,3,3-hexafluoro-2-hydroxypropan-2-yl)-4-methoxypyrazolo[1,5-a]pyridin-3-yl)amino)-N-(methyl-d3)nicotinamide]	4.24	>70.42	> 298	–	634	–	–
COC(=O)c1nnc(NC(=O)C2CC2)cc1Nc1cccc(-c2ncn(C)n2)c1OC [Example 85, Methyl 6-(cyclopropanecarboxamido)-4-((2-methoxy-3-(1-methyl-1H-1,2,4-triazol-3-yl)phenyl)amino)pyridazine-3-carboxylate]	198	>1.51	> 298	> 5000	–	–	–
[2H]C([2H])([2H])NC(=O)c1nnc(NC(=O)C2CC2)cc1Nc1cccc(-c2ncn(C)n2)c1C(C)=O [Example 87, 4-((2-Acetyl-3-(1-methyl-1H-1,2,4-triazol-3-yl)phenyl)amino)-6-(cyclopropanecarboxamido)-N-(methyl-d3)pyridazine-3-carboxamide]	> 298	–	> 298	1860	–	–	–
CCOC(=O)c1cnc(NC(=O)C2CC2)cc1Nc1cnn2ccc([C@H](OC)C(F)(F)F)c(OC)c12 [Example 88, Ethyl (S)-6-(cyclopropanecarboxamido)-4-((4-methoxy-5-(2,2,2-trifluoro-1-methoxyethyl)pyrazolo[1,5-a]pyridin-3-yl)amino)nicotinate]	1.7	>175.18	> 298	719	–	–	–
[2H]C([2H])([2H])NC(=O)c1nnc(NC(=O)C2CC2)cc1Nc1cccc(-c2ncn(C)n2)c1C(C)O (centres unmarked) [Example 89, 6-(Cyclopropanecarboxamido)-4-((2-(1-hydroxyethyl)-3-(1-methyl-1H-1,2,4-triazol-3-yl)phenyl)amino)-N-(methyl-d3)pyridazine-3-carboxamide]	> 298	–	> 298	> 5000	–	–	–
COc1c([C@H](OC)C(F)(F)F)ccn2ncc(Nc3cc(NC(=O)C4CC4)ncc3C(O)C(F)(F)F)c12 (stereo partly drawn) [Example 90, N-(4-((4-methoxy-5-((S)-2,2,2-trifluoro-1-methoxyethyl)pyrazolo[1,5-a]pyridin-3-yl)amino)-5-(2,2,2-trifluoro-1-hydroxyethyl)pyridin-2-yl)cyclopropanecarboxamide]	> 298	–	> 298	> 5000	–	–	–
COc1c([C@H](OC)C(F)(F)F)ccn2ncc(Nc3cc(NC(=O)C4CC4)ncc3C(=O)CC#N)c12 [Example 91, (S)-N-(5-(2-cyanoacetyl)-4-((4-methoxy-5-(2,2,2-trifluoro-1-methoxyethyl)pyrazolo[1,5-a]pyridin-3-yl)amino)pyridin-2-yl)cyclopropanecarboxamide]	5.24	>56.93	> 298	1380	–	–	–
COc1c([C@H](OC)C(F)(F)F)ccn2ncc(Nc3cc(NC(=O)C4CC4)ncc3C(O)CC#N)c12 (stereo partly drawn) [Example 92, N-(5-(2-cyano-1-hydroxyethyl)-4-((4-methoxy-5-((S)-2,2,2-trifluoro-1-methoxyethyl)pyrazolo[1,5-a]pyridin-3-yl)amino)pyridin-2-yl)cyclopropanecarboxamide]	26.5	3.00	79.6	878	–	–	–
COC(=O)c1cnc(NC(=O)C2CC2)cc1Nc1cnn2ccc(C(C)C(F)(F)F)c(OC)c12 (centres unmarked) [Example 93, Methyl 6-(cyclopropanecarbonylamino)-4-[[4-methoxy-5-(2,2,2-trifluoro-1-methylethyl)pyrazolo[1,5-a]pyridin-3-yl]amino]pyridine-3-carboxylate]	1.24	51.39	63.7	577	–	–	–
COCOc1cnc(NC(=O)C2CC2)cc1Nc1cnn2ccc([C@H](OC)C(F)(F)F)c(OC)c12 [Example 94, (S)-N-(4-((4-methoxy-5-(2,2,2-trifluoro-1-methoxyethyl)pyrazolo[1,5-a]pyridin-3-yl)amino)-5-(methoxymethoxy)pyridin-2-yl)cyclopropanecarboxamide]	141	1.37	193	–	4630	–	–
COc1c([C@H](OC)C(F)(F)F)ccn2ncc(Nc3cc(NC(=O)C4CC4)ncc3OCC#N)c12 [Example 95, (S)-N-(5-(cyanomethoxy)-4-((4-methoxy-5-(2,2,2-trifluoro-1-methoxyethyl)pyrazolo[1,5-a]pyridin-3-yl)amino)pyridin-2-yl)cyclopropanecarboxamide]	68.3	>4.37	> 298	> 5000	–	–	–
COC(=O)c1c(Nc2nn(C)c3ccc(C(OC)C(F)(F)F)c(OC)c23)cc(NC(=O)C2CC2)nc1N (centres unmarked) [Example 96, Methyl 2-amino-6-(cyclopropanecarboxamido)-4-((4-methoxy-1-methyl-5-(2,2,2-trifluoro-1-methoxyethyl)-1H-indazol-3-yl)amino) nicotinate]	–	>3.19	–	–	2990	93.6	> 298
COC(=O)c1cnc2cc1Nc1cc(cc(-c3ccn(C)n3)c1OC)CCOCc1cccc(n1)N2 [Example 105, Methyl 10-methoxy-11-(1-methyl-1H-pyrazol-3-yl)-16-oxa-2,4,8,22-tetraazatetracyclo[16.3.1.1^{3,7}.1^{9,13}]tetracosa-1(22),3,5,7(24),9(23),10,12,18,20-nonaene-6-carboxylate]	1.21	191.94	232	66.8	–	–	–
COC(=O)c1cnc(NC(=O)C2CC2)cc1Nc1n[nH]c2ccc(C(OC)C(F)(F)F)c(OC)c12 (centres unmarked) [Example 113, Methyl 6-(cyclopropanecarboxamido)-4-((4-methoxy-5-(2,2,2-trifluoro-1-methoxyethyl)-1H-indazol-3-yl)amino)nicotinate]	0.258	288.80	74.5	> 1000	–	–	–
COC(=O)c1cnc(NC(=O)C2CC2)cc1Nc1nn(C)c2ccc(C(C)C(F)(F)F)c(OC)c12 (centres unmarked) [Example 123, Methyl 6-(cyclopropanecarboxamido)-4-((4-methoxy-1-methyl-5-(1,1,1-trifluoropropan-2-yl)-1H-indazol-3-yl)amino)nicotinate]	0.37	470.33	174	88.3	–	–	–
[2H]C([2H])([2H])O[C@@H](c1ccc2c(c(Nc3cc(NC(=O)C4CC45CC5)ncc3C(=O)OC)nn2C)c1OC)C(F)(F)F (stereo partly drawn) [Example 136, Methyl 4-((4-methoxy-1-methyl-5-((S)-2,2,2-trifluoro-1-(methoxy-d3)ethyl)-1H-indazol-3-yl)amino)-6-(spiro[2.2]pentane-1-carboxamido)nicotinate]	0.21	370.63	77.8	21.2	–	–	–
CCC(=O)c1cnc(NC(=O)C2CC2)cc1Nc1nn(C)c2ccc([C@H](O)C(F)(F)F)c(OC)c12 [Example 140, (S)-N-(4-((4-Methoxy-1-methyl-5-(2,2,2-trifluoro-1-hydroxyethyl)-1H-indazol-3-yl)amino)-5-propionylpyridin-2-yl)cyclopropanecarboxamide]	0.061	71.43	4.36	0.463	–	–	–
